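Cells were grown in 96-well plates and exposed to each compound for 48 hours at five concentrations; endpoints were interpolated linearly between bracketing concentrations, or set to the highest concentration if not reached. Abbreviation: GI50, concentration required for 50% inhibition of growth. TGI: total growth inhibition.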
Assays:
Assay in all cases: NCI tumour cell line growth inhibition, 48 h
[1] = system: 786-0 renal
[2] = system: A498 renal
[3] = system: A549 NSCLC
[4] = system: ACHN renal
[5] = system: BT-549 breast
[6] = system: CAKI-1 renal
[7] = system: CCRF-CEM leukemia
[8] = system: COLO 205 colon
[9] = system: DU-145 prostate
[10] = system: EKVX NSCLC
[11] = system: HCC-2998 colon
[12] = system: HCT-116 colon
[13] = system: HCT-15 colon
[14] = system: HL-60(TB) leukemia
[15] = system: HOP-62 NSCLC
[16] = system: HOP-92 NSCLC
[17] = system: HS 578T breast
[18] = system: HT29 colon
[19] = system: IGROV1 ovarian
[20] = system: K-562 leukemia
[21] = system: KM12 colon
[22] = system: LOX IMVI melanoma
[23] = system: M14 melanoma
[24] = system: MALME-3M melanoma
[25] = system: MCF7 breast
[26] = system: MDA-MB-231 breast
[27] = system: MDA-MB-435
[28] = system: MDA-MB-468 breast
[29] = system: MOLT-4 leukemia
[30] = system: NCI-H226 lung
[31] = system: NCI-H23 lung
[32] = system: NCI-H460 lung
[33] = system: NCI-H522 lung
[34] = system: NCI/ADR-RES ovarian
[35] = system: OVCAR-3 ovarian
[36] = system: OVCAR-4 ovarian
[37] = system: OVCAR-5 ovarian
[38] = system: OVCAR-8 ovarian
[39] = system: PC-3 prostate
[40] = system: RPMI-8226 leukemia
[41] = system: RXF 393 renal
[42] = system: SF-268 CNS
[43] = system: SF-295 CNS
[44] = system: SF-539 CNS
[45] = system: SK-MEL-2 melanoma
[46] = system: SK-MEL-28 melanoma
[47] = system: SK-MEL-5 melanoma
[48] = system: SK-OV-3 ovarian
[49] = system: SN12C renal
[50] = system: SNB-19 CNS
[51] = system: SNB-75 CNS
[52] = system: SR leukemia
[53] = system: SW-620 colon
[54] = system: T-47D breast
[55] = system: TK-10 renal
[56] = system: U251 CNS
[57] = system: UACC-257 melanoma
[58] = system: UACC-62 melanoma
[59] = system: UO-31 renal

CCOC(=O)c1ccc(NC(=O)CSC(CC(=O)c2sc(Nc3ccccn3)nc2C)c2ccccc2F)cc1 (stereo not drawn)
GI50 [1]: 24.8 µM
TGI [1]: > 100 µM
GI50 [2]: 69.2 µM
TGI [2]: > 100 µM
GI50 [3]: 75.7 µM
TGI [3]: > 100 µM
GI50 [4]: 45.6 µM
TGI [4]: > 100 µM
GI50 [5]: 14.7 µM
TGI [5]: 81.5 µM
GI50 [6]: 11.5 µM
TGI [6]: > 100 µM
GI50 [7]: 18.6 µM
TGI [7]: > 100 µM
GI50 [8]: > 100 µM
TGI [8]: > 100 µM
GI50 [9]: 67.2 µM
TGI [9]: > 100 µM
GI50 [10]: 19 µM
TGI [10]: > 100 µM
GI50 [11]: 23.1 µM
TGI [11]: > 100 µM
GI50 [12]: 23 µM
TGI [12]: > 100 µM
GI50 [13]: 25.8 µM
TGI [13]: > 100 µM
GI50 [14]: 21.4 µM
TGI [14]: > 100 µM
GI50 [15]: 37.5 µM
TGI [15]: > 100 µM
GI50 [16]: 12.5 µM
TGI [16]: > 100 µM
GI50 [17]: 14.9 µM
TGI [17]: 94.8 µM
GI50 [18]: 58.3 µM
TGI [18]: > 100 µM
GI50 [19]: 12.1 µM
TGI [19]: 83.3 µM
GI50 [20]: 30.4 µM
TGI [20]: > 100 µM
GI50 [21]: 55.6 µM
TGI [21]: > 100 µM
GI50 [22]: 0.312 µM
TGI [22]: > 100 µM
GI50 [23]: 19.4 µM
TGI [23]: > 100 µM
GI50 [24]: 25.4 µM
TGI [24]: > 100 µM
GI50 [25]: 15.4 µM
TGI [25]: > 100 µM
GI50 [26]: 19.3 µM
TGI [26]: > 100 µM
GI50 [27]: 26.3 µM
TGI [27]: > 100 µM
GI50 [28]: 4.24 µM
TGI [28]: 44.3 µM
GI50 [29]: 32.2 µM
TGI [29]: > 100 µM
GI50 [30]: 2.52 µM
TGI [30]: 85.9 µM
GI50 [31]: 22.7 µM
TGI [31]: > 100 µM
GI50 [32]: 31.2 µM
TGI [32]: > 100 µM
GI50 [33]: 21.6 µM
TGI [33]: > 100 µM
GI50 [34]: 24.1 µM
TGI [34]: > 100 µM
GI50 [35]: 31.7 µM
TGI [35]: > 100 µM
GI50 [36]: 66.1 µM
TGI [36]: > 100 µM
GI50 [37]: 74.4 µM
TGI [37]: > 100 µM
GI50 [38]: 53.6 µM
TGI [38]: > 100 µM
GI50 [39]: 23.8 µM
TGI [39]: > 100 µM
GI50 [40]: 8.29 µM
TGI [40]: > 100 µM
GI50 [41]: 2.59 µM
TGI [41]: 23.5 µM
GI50 [42]: 43.1 µM
TGI [42]: > 100 µM
GI50 [43]: 32.2 µM
TGI [43]: > 100 µM
GI50 [44]: 32.5 µM
TGI [44]: > 100 µM
GI50 [45]: 44.9 µM
TGI [45]: > 100 µM
GI50 [46]: 38.7 µM
TGI [46]: > 100 µM
GI50 [47]: 18.6 µM
TGI [47]: 82 µM
GI50 [48]: 26 µM
TGI [48]: > 100 µM
GI50 [49]: 28 µM
TGI [49]: > 100 µM
GI50 [50]: 36.9 µM
TGI [50]: > 100 µM
GI50 [51]: 3.59 µM
TGI [51]: 48.8 µM
GI50 [52]: 24.1 µM
TGI [52]: > 100 µM
GI50 [53]: 75.3 µM
TGI [53]: > 100 µM
GI50 [54]: 18 µM
TGI [54]: > 100 µM
GI50 [55]: 82.3 µM
TGI [55]: > 100 µM
GI50 [56]: 47.8 µM
TGI [56]: > 100 µM
GI50 [57]: 38.4 µM
TGI [57]: > 100 µM
GI50 [58]: 16.1 µM
TGI [58]: > 100 µM
GI50 [59]: 3.19 µM
TGI [59]: > 100 µM

Source: PubChem BioAssay (NCI)
